Test results: ChEMBL document CHEMBL6087390, “Pyridine and Pyrimidine hybrids as privileged scaffolds in antimalarial drug discovery: A recent development” (Bioorg Med Chem Lett, 2024)

Assays:
[1] = system: Plasmodium falciparum; experiment: microbe, parasite or virus in culture; settings: W2
Description: Antimalarial activity against Plasmodium falciparum W2 assessed as reduction in parasite growth

[2] = system: Plasmodium falciparum; experiment: Antimalarial activity against Plasmodium falciparum D6 assessed as reduction in parasite growth; format: functional, organism-based
[3] = Cytotoxicity against African green monkey Vero cells assessed as reduction in cell growth measured after 72 hrs by MTT assay; format: toxicity, cell-based; settings: African green monkey (Chlorocebus sabaeus)
[4] = system: Plasmodium falciparum; experiment: Antiplasmodial activity against Plasmodium falciparum NF54 assessed as reduction in parasite growth; format: functional, organism-based
[5] = system: Plasmodium falciparum; experiment: Antimalarial activity against Plasmodium falciparum 3D7 assessed as inhibition of parasite growth measured after 72 hrs by SYBR Green I staining based analysis; format: functional, organism-based; settings: 3D7, 72 h
[6] = system: Plasmodium falciparum; experiment: Antiplasmodial activity against Plasmodium falciparum Dd2 assessed as reduction in parasite growth measured after 72 hrs by SYBR Green 1 staining based assay; format: functional, organism-based; settings: Dd2, 72 h
[7] = system: HepG2; experiment: Cytotoxicity against human HepG2 cells assessed as reduction in cell viability incubated for 72 hrs by MTT assay; format: functional
[8] = system: HepG2; experiment: Cytotoxicity against human HepG2 cells assessed as reduction in cell viability measured for 48 hrs by SRB assay; format: functional
[9] = system: Plasmodium falciparum; experiment: Antimalarial activity against Plasmodium falciparum 3D7 assessed as inhibition of parasite growth incubated for 72 hrs by SYBR Green I staining based analysis; format: functional, organism-based; settings: 3D7, 72 h
[10] = system: Plasmodium falciparum; experiment: Antiplasmodial activity against Plasmodium falciparum W2 assessed as reduction in parasite growth after 72 hrs by SYBR Green fluorescence assay; format: functional, organism-based; settings: W2, 72 h
[11] = system: Plasmodium falciparum; experiment: microbe, parasite or virus in culture; settings: 3D7, 72 h
[12] = system: Plasmodium falciparum; experiment: Antimalarial activity against Plasmodium falciparum K1 assessed as parasite growth inhibition; format: functional, organism-based
[13] = system: Plasmodium falciparum; experiment: Antimalarial activity against […] Plasmodium falciparum NF54 assessed as inhibition of parasite growth incubated for 48 hrs by SYBR green dye based flow cytometry; format: functional, organism-based; settings: NF54, 48 h
[14] = system: HepG2; experiment: Cytotoxicity against human HepG2 cells assessed as reduction in cell growth; format: functional

## CCN1CCN(c2cc(C)nc(N(CCCNc3ccnc4cc(Cl)ccc34)Cc3cccs3)n2)CC1
[1]
  IC50: 0.01 µM
[2]
  IC50: 0.032 µM

## Cc1cc(N2CCN(C)CC2)nc(N(CCCNc2ccnc3cc(Cl)ccc23)Cc2cccs2)n1
[1]
  IC50: 0.01 µM
[2]
  IC50: 0.03 µM

## FC(F)(F)c1cc(Nc2ncccn2)c2cccc(C(F)(F)F)c2n1
[3]
  IC50 at 72 h: > 559 µM

## Cc1cc(N(CCNc2ccnc3cc(Cl)ccc23)Cc2ccccn2)nc(N2CCN(C)CC2)n1
[2]
  IC50: 0.02 µM

## CCN1CCN(c2nc(C)cc(N(CCNc3ccnc4cc(Cl)ccc34)Cc3ccccn3)n2)CC1
[1]
  IC50: 0.09 µM
[2]
  IC50: 0.02 µM

## Oc1ccc(-c2cc(-c3ccc(O)cc3)nc(NCCCCNc3ccnc4cc(Cl)ccc34)n2)cc1
[4]
  IC50: 0.32 µM

## COc1ccc(-c2cc(-c3ccc(OC)c(OC)c3)nc(N3CCN(c4ccnc5cc(Cl)ccc45)CC3)n2)cc1OC
[4]
  IC50: 6.17 µM

## Oc1ccc(-c2cc(-c3ccc(O)c(O)c3)nc(NCCCCNc3ccnc4cc(Cl)ccc34)n2)cc1
[4]
  IC50: 1.62 µM

## COc1ccc(-c2cc(-c3ccc(OC)cc3)nc(N3CCN(c4ccnc5cc(Cl)ccc45)CC3)n2)cc1
[4]
  IC50: 7.69 µM

## Cc1ccccc1-n1nnnc1C(c1cccnc1)N(C)Cc1cc(C(F)(F)F)ccc1F (stereo not drawn)
[5]
  EC50: 1 µM

## COc1ccc(C(F)(F)F)cc1CN(C)C(c1cccnc1)c1nnnn1-c1ccccc1C (stereo not drawn)
[5]
  EC50: 1.2 µM
[6]
  EC50: 1.7 µM

## Cc1ccccc1-n1nnnc1C(c1cccnc1)N(Cc1cccc(C(F)(F)F)c1)C1CC1 (stereo not drawn)
[7]
  CC50: 15 µM

## Cc1ccccc1-n1nnnc1C(c1cccnc1)N(Cc1cc(C(F)(F)F)ccc1F)C1CC1 (stereo not drawn)
[5]
  EC50: 0.6 µM

## Cc1ccccc1-n1nnnc1C(c1cncnc1)N(Cc1cccc(C(F)(F)F)c1)C1CC1 (stereo not drawn)
[8]
  CC50: 37 µM
[9]
  EC50: 0.4 µM

## COc1ccc(C(F)(F)F)cc1CN(C1CC1)C(c1cccnc1)c1nnnn1-c1ccccc1C (stereo not drawn)
[7]
  CC50: 16 µM

## CCCN(C(c1cccnc1)c1nnnn1-c1ccccc1C)C1(c2cccc(C(F)(F)F)c2)CC1 (stereo not drawn)
[7]
  CC50: 10 µM

## COc1ccc(NC(=O)C(c2ccc(OC(F)(F)F)cc2)N2CCN(c3ncnc4sc5c(c34)CCCC5)CC2)cc1 (stereo not drawn)
[10]
  IC50: 0.06 µM

## COc1ccc(NC(=O)C(c2ccc(Cl)c(Cl)c2)N2CCN(c3ncnc4sc5c(c34)CCCC5)CC2)cc1 (stereo not drawn)
[10]
  IC50: 0.06 µM

## COc1ccc(NC(=O)C(c2ccc(C)cc2)N2CCN(c3ncnc4sc5c(c34)CCCC5)CC2)cc1 (stereo not drawn)
[10]
  IC50: 0.26 µM

## COc1ccc(NC(=O)C(c2ccc(C(F)(F)F)cc2)N2CCN(c3ncnc4sc5c(c34)CCCC5)CC2)cc1 (stereo not drawn)
[10]
  IC50: 0.05 µM

## COc1ccc(NC(=O)C(c2ccc(F)c(Cl)c2)N2CCN(c3ncnc4sc5c(c34)CCCC5)CC2)cc1 (stereo not drawn)
[11]
  IC50: 1 µM
[10]
  IC50: 0.12 µM

## Clc1ccc2c(NCCn3cc(-c4ccnc(-c5ccccn5)c4)nn3)ccnc2c1
[12]
  IC50: 0.27 µM
[13]
  IC50: 0.09 µM

## CC1(C)c2nc(-c3ccc(F)cc3)c(Br)n2CCN1C(=O)Cn1cc(-c2ccnc(-c3ccccn3)c2)nn1
[12]
  IC50: 3.9 µM
[13]
  IC50: 6.8 µM

## Cc1ncc(C(c2nnnn2C2CC2)N(C2CC2)C2(c3cccc(C(F)(F)F)c3)CC2)cn1 (stereo not drawn)
[8]
  CC50: > 30 µM
[9]
  EC50: > 30 µM
[6]
  EC50: 21 µM

## CN(Cc1cccc(C(F)(F)F)c1F)C(c1cccnc1)c1nnnn1C1CCCCC1 (stereo not drawn)
[5]
  EC50: 1.7 µM
[6]
  EC50: 2.6 µM

## CC(=O)N(Cc1cccc(C(F)(F)F)c1)C(c1cncnc1)c1nnnn1-c1ccccc1C (stereo not drawn)
[8]
  CC50: > 30 µM
[9]
  EC50: 15 µM
[6]
  EC50: > 30 µM

## Clc1ccc2c(NCCn3cc(-c4ccccn4)nn3)ccnc2c1
[12]
  IC50: 0.95 µM
[13]
  IC50: 0.62 µM

## CC1(C)c2nc(-c3ccc(F)cc3)c(Br)n2CCN1C(=O)Cn1cc(-c2ccccn2)nn1
[12]
  IC50: 88.3 µM
[13]
  IC50: 73.1 µM

## CC(C)=CCC1=C(OCc2cn(C3CC(CO)OC3n3cc(C)c(=O)[nH]c3=O)nn2)C(=O)c2ccccc2C1=O (stereo not drawn)
[14]
  CC50: 60.7 µM

## CC[C@H]1CN2CCc3cc(OC)c(OC)cc3[C@@H]2C[C@@H]1C[C@H]1NCCc2cc(OC)c(OC)cc21 [EMETINE]
[12]
  IC50: 0.65 µM
[13]
  IC50: 0.25 µM

## OC(c1cc(C(F)(F)F)nc2c(C(F)(F)F)cccc12)C1CCCCN1 (stereo not drawn) [MEFLOQUINE]
[3]
  IC50 at 72 h: 15 µM
[1]
  IC50: 0.01 µM
